Measurements as given in patent US9204653B2, “5-fluoro pyrimidine derivatives” (DOW AGROSCIENCES LLC, priority 2008, dated 2015).
Like-named read-outs stand apart in the source and are kept apart here.

Test system: Mycosphaerella graminicola; Anamorph: Septoria tritici; Bayer Code SEPTTR
Assay: Leaf blotch of wheat, foliar fungicide treatment, one day protectant (1DP) or three day curative (3DC)
Type: in vivo, Septoria tritici on wheat plants (variety Yuma)
Details: Zymoseptoria tritici
[1] = 24 h, one day protectant (1DP), 25 ppm, rating of percent disease control, read-out: SETTTR 1DP 25 ppm
[2] = 24 h, one day protectant (1DP), rating of percent disease control, read-out: SEPTTR 1DP 100 ppm
[3] = 72 h, three day curative (3DC), 25 ppm, rating of percent disease control, read-out: SEPTTR 3DC 25 ppm
[4] = 72 h, three day curative (3DC), rating of percent disease control, read-out: SEPTTR 3DC 100 ppm
[5] = 24 h, one day protectant (1DP), 25 ppm, percent disease control rating, read-out: SETTTR 1DP 25 ppm
[6] = 24 h, one day protectant (1DP), percent disease control rating, read-out: SEPTTR 1DP 100 ppm
[7] = 72 h, three day curative (3DC), 25 ppm, percent disease control rating, read-out: SEPTTR 3DC 25 ppm
[8] = 72 h, three day curative (3DC), percent disease control rating, read-out: SEPTTR 3DC 100 ppm
[9] = 24 h, % disease control rating, one day protectant
[10] = 24 h, one day protectant, 25 ppm, rating of percent disease control, read-out: SETTTR 1DP 25 ppm
[11] = 24 h, one day protectant, rating of percent disease control, read-out: SEPTTR 1DP 100 ppm
[12] = 24 h, one day protectant (1DP), 25 ppm (first 1DP column), percent control rating, read-out: SETTTR 1DP 25 ppm
[13] = 24 h, one day protectant (1DP), 25 ppm as printed (second 1DP column), percent control rating, read-out: SETTTR 1DP 25 ppm
[14] = 72 h, three day curative (3DC), 25 ppm, percent control rating, read-out: SEPTTR 3DC 25 ppm
[15] = 72 h, three day curative (3DC), percent control rating, read-out: SEPTTR 3DC 100 ppm

What does the source list for `COc1ccc(COc2ncc(F)c(/N=C/N3CCOCC3)n2)cc1F` [Compound 241]?
pest or weed control at 25 ppm [1]: 76 to 100%; pest or weed control at 100 ppm [2]: 76 to 100%; pest or weed control at 25 ppm [3]: 76 to 100%; pest or weed control at 100 ppm [4]: 51 to 75%

For `CC(=O)Nc1nc(OCc2cccs2)ncc1F` [Compound 6, N-[5-Fluoro-2-(thiophen-2-ylmethoxy)pyrimidin-4-yl]acetamide], which pest or weed control at 25 ppm [5] is on record?
The pest or weed control at 25 ppm was 76 to 100%.

And the pest or weed control at 100 ppm [6]?
The pest or weed control at 100 ppm was 76 to 100%.

What about the pest or weed control at 25 ppm [7] of the same molecule?
The pest or weed control at 25 ppm was 76 to 100%.

What about the pest or weed control at 100 ppm [8] of the same molecule?
The pest or weed control at 100 ppm was 76 to 100%.

For `O=C(NCc1ccccc1F)Nc1nc(OCc2ccccc2)ncc1F` [Compound 371], which pest or weed control at 25 ppm [1] is on record?
Its pest or weed control at 25 ppm is 0 to 25%.

What about the pest or weed control at 100 ppm [2] of the same molecule?
The pest or weed control at 100 ppm was 0 to 25%.

What about the pest or weed control at 25 ppm [3] of the same molecule?
The pest or weed control at 25 ppm was 0 to 25%.

What about the pest or weed control at 100 ppm [4] of the same molecule?
Its pest or weed control at 100 ppm is 0 to 25%.

Which results are given for `N#Cc1cccc(COc2ncc(F)c(/N=C/N3CCOCC3)n2)c1` [Compound 177]?
pest or weed control at 25 ppm [5]: 76 to 100%; pest or weed control at 100 ppm [6]: 76 to 100%; pest or weed control at 25 ppm [7]: 76 to 100%; pest or weed control at 100 ppm [8]: 76 to 100%

Which pest or weed control at 200 ppm [9] does the source give for `Fc1cnc(OCc2ccc(Cl)cc2Cl)nc1NCc1cccs1` [Compound 838] here?
The pest or weed control at 200 ppm was 76 to 100%.

Which results are given for `Nc1nc(OCc2ccc(F)c(Cl)c2)ncc1F` [Compound 547]?
pest or weed control at 25 ppm [1]: 76 to 100%; pest or weed control at 100 ppm [2]: 76 to 100%; pest or weed control at 25 ppm [3]: 76 to 100%; pest or weed control at 100 ppm [4]: 76 to 100%

For `Nc1nc(OCc2ccc(Cl)cc2Cl)ncc1F` [Compound 540], which pest or weed control at 25 ppm [1] is on record?
Its pest or weed control at 25 ppm is 76 to 100%.

And the pest or weed control at 100 ppm [2]?
Its pest or weed control at 100 ppm is 76 to 100%.

And the pest or weed control at 25 ppm [3]?
Its pest or weed control at 25 ppm is 76 to 100%.

And the pest or weed control at 100 ppm [4]?
Its pest or weed control at 100 ppm is 76 to 100%.

How did the pest or weed control at 25 ppm [10] turn out when `Nc1nc(Oc2ccccc2Cl)ncc1F` [Compound 551] was run?
Its pest or weed control at 25 ppm is 0 to 25%.

What about the pest or weed control at 100 ppm [11] of the same molecule?
The pest or weed control at 100 ppm was 26 to 50%.

For `CC(C)c1ccc(COc2ncc(F)c(N)n2)cc1` [Compound 197], which pest or weed control at 25 ppm [1] is on record?
Its pest or weed control at 25 ppm is 51 to 75%.

And the pest or weed control at 100 ppm [2]?
Its pest or weed control at 100 ppm is 76 to 100%.

What about the pest or weed control at 25 ppm [3] of the same molecule?
Its pest or weed control at 25 ppm is 51 to 75%.

What about the pest or weed control at 100 ppm [4] of the same molecule?
Its pest or weed control at 100 ppm is 76 to 100%.

For `Fc1ccc(COc2ncc(F)c(NNc3nccc(C(F)(F)F)n3)n2)cc1` [Compound 1043], which pest or weed control at 25 ppm [12] is on record?
The pest or weed control at 25 ppm was 0 to 25%.

And the pest or weed control at 25 ppm [13]?
The pest or weed control at 25 ppm was 0 to 25%.

And the pest or weed control at 25 ppm [14]?
The pest or weed control at 25 ppm was 0 to 25%.

What about the pest or weed control at 100 ppm [15] of the same molecule?
Its pest or weed control at 100 ppm is 0 to 25%.

Which results are given for `CC(=O)OC[C@H]1O[C@@H](Oc2ncc(F)c(N)n2)[C@H](OC(C)=O)[C@@H](OC(C)=O)[C@@H]1OC(C)=O` [Compound 192]?
pest or weed control at 25 ppm [1]: 76 to 100%; pest or weed control at 100 ppm [2]: 76 to 100%; pest or weed control at 25 ppm [3]: 51 to 75%; pest or weed control at 100 ppm [4]: 76 to 100%

What does the source list for `CC(C)(C)OCCOc1ncc(F)c(N)n1` [Compound 802]?
pest or weed control at 25 ppm [1]: 0 to 25%; pest or weed control at 100 ppm [2]: 0 to 25%; pest or weed control at 25 ppm [3]: 0 to 25%; pest or weed control at 100 ppm [4]: 0 to 25%

`COc1nn(C)c(C(F)(F)F)c1S(=O)(=O)Nc1nc(OCc2ccc(C)cc2)ncc1F` [Compound 1015] was tested. Which pest or weed control at 25 ppm [12] did it give?
Its pest or weed control at 25 ppm is 0 to 25%.

What about the pest or weed control at 25 ppm [13] of the same molecule?
Its pest or weed control at 25 ppm is 0 to 25%.

And the pest or weed control at 25 ppm [14]?
Its pest or weed control at 25 ppm is 26 to 50%.

What about the pest or weed control at 100 ppm [15] of the same molecule?
The pest or weed control at 100 ppm was 76 to 100%.

How did the pest or weed control at 25 ppm [5] turn out when `CCOc1cccc(COc2ncc(F)c(N)n2)c1` [Compound 66] was run?
The pest or weed control at 25 ppm was 76 to 100%.

What about the pest or weed control at 100 ppm [6] of the same molecule?
Its pest or weed control at 100 ppm is 76 to 100%.

And the pest or weed control at 25 ppm [7]?
Its pest or weed control at 25 ppm is 76 to 100%.

What about the pest or weed control at 100 ppm [8] of the same molecule?
Its pest or weed control at 100 ppm is 76 to 100%.

`O=C(NCc1ccccc1)Nc1nc(O)ncc1F` [Compound 969] was tested. Which pest or weed control at 25 ppm [12] did it give?
Its pest or weed control at 25 ppm is 26 to 50%.

And the pest or weed control at 25 ppm [13]?
Its pest or weed control at 25 ppm is 26 to 50%.

What about the pest or weed control at 25 ppm [14] of the same molecule?
Its pest or weed control at 25 ppm is 26 to 50%.

What about the pest or weed control at 100 ppm [15] of the same molecule?
Its pest or weed control at 100 ppm is 51 to 75%.

For `Nc1nc(OCc2ccc(F)c(C(F)(F)F)c2)ncc1F` [Compound 60], which pest or weed control at 25 ppm [5] is on record?
The pest or weed control at 25 ppm was 76 to 100%.

What about the pest or weed control at 100 ppm [6] of the same molecule?
The pest or weed control at 100 ppm was 76 to 100%.

What about the pest or weed control at 25 ppm [7] of the same molecule?
Its pest or weed control at 25 ppm is 76 to 100%.

And the pest or weed control at 100 ppm [8]?
Its pest or weed control at 100 ppm is 76 to 100%.

Which results are given for `Fc1cnc(OCc2ccc(OC(F)(F)F)cc2)nc1NCc1ccc(Cl)cc1` [Compound 829]?
pest or weed control at 50 ppm (24 h, % disease control rating, one day protectant, 50 ppm): 26 to 50%; pest or weed control at 200 ppm [9]: 76 to 100%

Which pest or weed control at 25 ppm [12] does the source give for `Cc1ccc(COc2ncc(F)c(NNc3ccccc3F)n2)cc1` [Compound 1039] here?
The pest or weed control at 25 ppm was 0 to 25%.

And the pest or weed control at 25 ppm [13]?
Its pest or weed control at 25 ppm is 0 to 25%.

What about the pest or weed control at 25 ppm [14] of the same molecule?
The pest or weed control at 25 ppm was 0 to 25%.

And the pest or weed control at 100 ppm [15]?
Its pest or weed control at 100 ppm is 0 to 25%.

How did the pest or weed control at 25 ppm [5] turn out when `CN(C)/C=N/c1nc(OC(=O)OCc2ccccc2)ncc1F` [Compound 112] was run?
The pest or weed control at 25 ppm was 76 to 100%.

And the pest or weed control at 100 ppm [6]?
Its pest or weed control at 100 ppm is 76 to 100%.

What about the pest or weed control at 25 ppm [7] of the same molecule?
The pest or weed control at 25 ppm was 76 to 100%.

What about the pest or weed control at 100 ppm [8] of the same molecule?
The pest or weed control at 100 ppm was 76 to 100%.

How did the pest or weed control at 25 ppm [10] turn out when `COc1ccc(C(=O)Oc2ncc(F)c(/N=C/N(C)C)n2)cc1` [Compound 636] was run?
Its pest or weed control at 25 ppm is 76 to 100%.

What about the pest or weed control at 100 ppm [11] of the same molecule?
The pest or weed control at 100 ppm was 76 to 100%.

What about the pest or weed control at 25 ppm (72 h, three day curative, 25 ppm, rating of percent disease control, read-out: SEPTTR 3DC 25 ppm) of the same molecule?
The pest or weed control at 25 ppm was 76 to 100%.

And the pest or weed control at 100 ppm (72 h, three day curative, rating of percent disease control, read-out: SEPTTR 3DC 100 ppm)?
The pest or weed control at 100 ppm was 76 to 100%.
